This note sets out measurements from patent US9463188B2, “Osteopontin production inhibitor containing dictyopyrone derivative or dihydrodictyopyrone derivative as active ingredient” (TOHOKU UNIVERSITY, priority 2013, dated 2016).

The experiment concerns OPN production by human non-small cell lung cancer-derived cell line A549. Description: OPN production by A549 cells (Human Osteopontin Immunoassay, per mg protein). Particulars: 2-day culture. Format: cell-based. As for the experimental part: The confirmation test was performed in the following manner. The compound 3 wad added to a culture liquid containing cells of a human non-small cell lung cancer-derived cell line A549 or a human liver cancer-derived cell line HepG2, and the amount of OPN in culture supernatant after 2-day culture was measured using Human Osteopontin Immunoassay kit (R&D systems) and compared with the OPN amount of a compound 3-free group (control group).
The compound 3 has also cell growth inhibitory effect. Therefore, in order to properly evaluate the OPN production-suppressing effect of the compound 3, 1×CCLR used in luciferase assay was added to cells remaining in each well after removal of culture supernatant to prepare a cell lysate, and the amount of protein in the cell lysate was measured using BCA Protein Assay Kit (Thermo Scientific). The influence of addition of the compound 3 on the amount of OPN production was evaluated by comparison of the amount of OPN per milligram of protein.
First, A549 cells or HepG2 cells were suspended in DMEM medium containing 10% FCS and 1% P/S at 4×10^4 cells/mL to obtain a cell suspension, and 500 μL of the cell suspension was dispensed into each well of a 24-well plate. In order to perform the test in triplicate, 3 wells were prepared for a control group and 3 wells were prepared for each test compound-treated group at each concentration. […]

Turning to `CCCCCCCCCCCC(=O)[C@H]1C(=O)O[C@@H](C)C[C@@H]1C` [Chemical formula 3], the “suppression of OPN production vs control group” value by setting is: (30 μmol/L, significance level less than 5%) “significantly suppressed”; (60 μmol/L, significance level less than 1%) “significantly suppressed”.
